This passage reports IC50, CC50 and selectivity ratio results from ChEMBL document CHEMBL4340503, “Antiviral activities of Janus-type nucleosides and their related oxime-intermediates” (Bioorg Med Chem, 2019).

The subject of one data set is Human alphaherpesvirus 1. Nature of the data set: Antiviral activity against Herpes simplex virus 1 infected in African green monkey Vero cells assessed as inhibition of virus-induced cytopathogenic effect by microscopic analysis. The conditions noted are these: Human alphaherpesvirus 1, Vero. The data set is classed as functional, organism-based.
Data set [1] can be described thus: Cytotoxicity against African green monkey Vero cells infected with Herpes simplex virus 1 after 72 hrs by MTT assay. Type of data set: cell-based. The conditions noted are these: chlorocebus sabaeus, read-out: TC50. (In general: Formazan colour is commonly taken as a measure of viable cells.)
In the next data set the test system is Influenza A virus H3N2. Briefly: Antiviral activity against Influenza A virus H3N2 infected in African green monkey Vero cells assessed as inhibition of virus-induced cytopathogenic effect by microscopic analysis. The data set is classed as functional, organism-based. (Damage to the host cells serves as the signal in cytopathic effect assays.)
Data set [2] in a line: Selectivity index, ratio of TC50 against African green monkey Vero cells infected with Herpes simplex virus 1 after 72 hrs by MTT assay to IC50 against Herpes simplex virus 1 infected in African green monkey Vero cells assessed as inhibition of virus-induced cytopathogenic effect by microscopic analysis. Type of data set: toxicity. The following applies: read-out: Selectivity Index.

Data set [3] is described as follows: Cytotoxicity against African green monkey Vero cells infected with Human papillomavirus after 72 hrs by MTT assay. Type of data set: cell-based. The following applies: chlorocebus sabaeus, read-out: TC50.
Data set [4] is described as follows: Cytotoxicity against African green monkey Vero cells infected with Hepatitis B virus after 72 hrs by MTT assay. The conditions noted are these: chlorocebus sabaeus, read-out: TC50. The data set is classed as cell-based.
Data set [5] is described as follows: Cytotoxicity against African green monkey Vero cells infected with Herpes simplex virus 2 after 72 hrs by MTT assay. The data set is classed as cell-based. The conditions noted are these: chlorocebus sabaeus, read-out: TC50.
Data set [6] in a line: Selectivity index, ratio of TC50 against African green monkey Vero cells infected with Hepatitis B virus after 72 hrs by MTT assay to IC50 against Hepatitis B virus infected in African green monkey Vero cells assessed as inhibition of virus-induced cytopathogenic effect by microscopic analysis. Type of data set: toxicity. The conditions noted are these: read-out: Selectivity Index.

A short description of data set [7]: Cytotoxicity against African green monkey Vero cells infected with Hepatitis C virus after 72 hrs by MTT assay. Type of data set: cell-based. The following applies: chlorocebus sabaeus, read-out: TC50.
In a further data set the test system is Human papillomavirus. Briefly: Antiviral activity against Human papillomavirus infected in African green monkey Vero cells assessed as inhibition of virus-induced cytopathogenic effect by microscopic analysis. Type of data set: functional, organism-based.
A further data set concerns Human alphaherpesvirus 2. Nature of the data set: Antiviral activity against Herpes simplex virus 2 infected in African green monkey Vero cells assessed as inhibition of virus-induced cytopathogenic effect by microscopic analysis. The data set is classed as functional, organism-based. The following applies: Human alphaherpesvirus 2, Vero.
The nature of data set [8]: Cytotoxicity against African green monkey Vero cells infected with Coxsackievirus B3 after 72 hrs by MTT assay. The following applies: chlorocebus sabaeus, read-out: TC50. The data set is classed as cell-based.
Another data set concerns Coxsackievirus B3. Briefly: Antiviral activity against Coxsackievirus B3 infected in African green monkey Vero cells assessed as inhibition of virus-induced cytopathogenic effect by microscopic analysis. The data set is classed as functional, organism-based. The conditions noted are these: Enterovirus B.
Data set [9] can be described thus: Selectivity index, ratio of TC50 against African green monkey Vero cells infected with Herpes simplex virus 2 after 72 hrs by MTT assay to IC50 against Herpes simplex virus 2 infected in African green monkey Vero cells assessed as inhibition of virus-induced cytopathogenic effect by microscopic analysis. The data set is classed as toxicity. The following applies: read-out: Selectivity Index.

Data set [10] is described as follows: Cytotoxicity against African green monkey Vero cells infected with Influenza A virus H3N2 after 72 hrs by MTT assay. The data set is classed as cell-based. The following applies: chlorocebus sabaeus, read-out: TC50.
A short description of data set [11]: Selectivity index, ratio of TC50 against African green monkey Vero cells infected with Influenza A virus H3N2 after 72 hrs by MTT assay to IC50 against Influenza A virus H3N2 infected in African green monkey Vero cells assessed as inhibition of virus-induced cytopathogenic effect by microscopic analysis. The conditions noted are these: read-out: Selectivity Index. The data set is classed as toxicity.

Data set [12] in a line: Selectivity index, ratio of TC50 against African green monkey Vero cells infected with Hepatitis C virus after 72 hrs by MTT assay to IC50 against Hepatitis C virus infected in African green monkey Vero cells assessed as inhibition of virus-induced cytopathogenic effect by microscopic analysis. Type of data set: toxicity. The conditions noted are these: read-out: Selectivity Index.

Data set [13] can be described thus: Selectivity index, ratio of TC50 against African green monkey Vero cells infected with Human papillomavirus after 72 hrs by MTT assay to IC50 against Human papillomavirus infected in African green monkey Vero cells assessed as inhibition of virus-induced cytopathogenic effect by microscopic analysis. The conditions noted are these: read-out: Selectivity Index. The data set is classed as toxicity.

The nature of data set [14]: Selectivity index, ratio of TC50 against African green monkey Vero cells infected with Coxsackievirus B3 after 72 hrs by MTT assay to IC50 against Coxsackievirus B3 infected in African green monkey Vero cells assessed as inhibition of virus-induced cytopathogenic effect by microscopic analysis. Type of data set: toxicity. The conditions noted are these: read-out: Selectivity Index.

Another data set relates to Hepatitis C virus. Briefly: Antiviral activity against Hepatitis C virus infected in African green monkey Vero cells assessed as inhibition of virus-induced cytopathogenic effect by microscopic analysis. Type of data set: functional, organism-based, Hepacivirus hominis.

In brackets after ≈: the same amount, converted by molar mass.

Consider `COc1ccccc1CCCNc1ncnc(Cl)c1/C=N/O`, for which, in the data set with Human alphaherpesvirus 1, the 50% inhibitory concentration (IC50) (usually the midpoint of a concentration-inhibition curve) is more than 0.19 µg/mL. Also, the CC50 at 72 h in data set [1] was 1.29 µg/mL (≈ 4.02 µM).

For the compound `Nc1ncn([C@@H]2O[C@H](CO)[C@@H](O)[C@H]2O)c2nc(=O)[nH]c(=O)c1-2`, the IC50 in the data set with Influenza A virus H3N2 and in the data set with Human alphaherpesvirus 1 was more than 333 µg/mL in each case. For the same compound, in data set [1], the CC50 at 72 h was 577 µg/mL (≈ 1850 µM).

As to `C[C@H]1O[C@@H](n2c(=O)nc(N)c3c(=O)[nH]c(N)nc32)[C@H](O)[C@@H]1O`, the values for the IC50 in the data set on Influenza A virus H3N2 and in the data set with Human alphaherpesvirus 1 were more than 4.12 µg/mL and 2.08 µg/mL (≈ 6.7 µM), respectively. In addition, in data set [2], the selectivity ratio at 72 h turned out to be 4.1. Further, the CC50 at 72 h in [1] turned out to be 8.56 µg/mL (≈ 27.6 µM).

As to `COc1ccccc1CNc1ncnc(Cl)c1/C=N/O`, the CC50 at 72 h in data set [3] came out at 13.5 µg/mL (≈ 46.1 µM); in [4], 0.063 µg/mL (≈ 0.215 µM); in [5] it was 1.11 µg/mL (≈ 3.79 µM); in data set [7], 32.4 µg/mL (≈ 111 µM); in data set [8], 0.86 µg/mL (≈ 2.94 µM); in data set [10] it was 1.19 µg/mL (≈ 4.07 µM). Further, the CC50 at 72 h in data set [1] is 0.86 µg/mL (≈ 2.94 µM). In addition, the IC50 was found to be 0.27 µg/mL (≈ 0.922 µM) in the data set with Influenza A virus H3N2; 7.9 µg/mL (≈ 27 µM) in the data set with Human papillomavirus; 0.04 µg/mL (≈ 0.137 µM) with Human alphaherpesvirus 1; 0.29 µg/mL (≈ 0.991 µM) in the data set on Human alphaherpesvirus 2; 0.05 µg/mL (≈ 0.171 µM) in the data set on Coxsackievirus B3; 1.19 µg/mL (≈ 4.07 µM) in the data set on Hepatitis C virus. Further, the selectivity ratio at 72 h in data set [6] came out at 25.3; in data set [2] it was 21.5; in data set [9] it was 3.83; in [11] it was 4.41; in [12], 27.2; in data set [13], 1.71. Moreover, the selectivity ratio at 72 h in data set [14] came out at 17.2.

For the compound `CC(C)(C)c1ccc(CNc2ncnc(Cl)c2/C=N\O)cc1`, in the data set on Human alphaherpesvirus 1, the concentration for half-maximal inhibition (IC50) was 0.48 µg/mL (≈ 1.51 µM). Further, the selectivity ratio at 72 h in data set [2] came to 2.97. Further, the CC50 at 72 h in [1] came to 1.43 µg/mL (≈ 4.49 µM).

On to `COc1ccccc1CCNc1ncnc(Cl)c1/C=N/O`, for which, in the data set with Human alphaherpesvirus 1, the IC50 amounted to 3.56 µg/mL (≈ 11.6 µM). For the same compound, in data set [2], the selectivity ratio at 72 h amounted to 22.5. The CC50 at 72 h in data set [1] came out at 80.1 µg/mL (≈ 261 µM).

Consider `Nc1ccc(CNc2ncnc(Cl)c2/C=N/O)cc1`, for which the IC50 in the data set on Human alphaherpesvirus 1 is 0.47 µg/mL (≈ 1.69 µM). For the same compound, the selectivity ratio at 72 h in [2] turned out to be 5.26. In addition, the CC50 at 72 h in data set [1] came out at 2.47 µg/mL (≈ 8.89 µM).

With `COc1ccc(CNc2ncnc(Cl)c2/C=N/O)cc1`, the IC50 with Human alphaherpesvirus 1 was found to be 0.35 µg/mL (≈ 1.2 µM). Also, the selectivity ratio at 72 h in [2] was found to be 7.06. In addition, the CC50 at 72 h in data set [1] came to 2.47 µg/mL (≈ 8.44 µM).

With `COc1ccccc1Nc1ncnc(Cl)c1/C=N/O`, the IC50 in the data set on Human alphaherpesvirus 1 was 1.43 µg/mL (≈ 5.13 µM). The selectivity ratio at 72 h in data set [2] came to 6.22. Besides, the CC50 at 72 h in data set [1] stood at 8.9 µg/mL (≈ 31.9 µM).

For `Nc1nc2c(c(N)nc(=O)n2[C@H]2C[C@H](O)[C@@H](CO)O2)c(=O)[nH]1`, the IC50 in the data set on Influenza A virus H3N2 was more than 250 µg/mL; in the data set with Human alphaherpesvirus 1, more than 167 µg/mL. In data set [1], the CC50 at 72 h worked out at 347 µg/mL (≈ 1120 µM).

Turning to `COc1cccc(CNc2ncnc(Cl)c2/C=N/O)c1`, the IC50 in the data set on Human alphaherpesvirus 1 worked out at 0.48 µg/mL (≈ 1.64 µM). For the same compound, the selectivity ratio at 72 h in data set [2] is 4.81. In addition, the CC50 at 72 h in data set [1] is 2.31 µg/mL (≈ 7.89 µM).

For `Cc1ccc(CNc2ncnc(Cl)c2/C=N/O)cc1`, in the data set on Human alphaherpesvirus 1, the concentration for half-maximal inhibition (IC50) was found to be 0.21 µg/mL (≈ 0.759 µM). Moreover, the selectivity ratio at 72 h in [2] is 5.29. The CC50 at 72 h in data set [1] was determined as 1.11 µg/mL (≈ 4.01 µM).

Consider `Nc1ncn([C@H]2O[C@@H](CO)[C@H](O)[C@@H]2O)c2nc(=O)[nH]c(=O)c1-2`, for which the IC50 in the data set on Influenza A virus H3N2 is more than 333 µg/mL; with Human alphaherpesvirus 1, 333 µg/mL (≈ 1070 µM). In addition, the selectivity ratio at 72 h in data set [2] worked out at 1.7. Also, in data set [1], the CC50 at 72 h came to 577 µg/mL (≈ 1850 µM).

On to `C[C@H]1O[C@@H](n2cnc(N)c3c(=O)[nH]c(=O)nc2-3)[C@H](O)[C@@H]1O`, for which the 50% inhibitory concentration (IC50) in the data set with Influenza A virus H3N2 and with Human alphaherpesvirus 1 was 167 µg/mL (≈ 564 µM) each time. The selectivity ratio at 72 h in data set [2] and in [11] was 3 throughout. In [1], the CC50 at 72 h was 500 µg/mL (≈ 1690 µM).

As for `CO/N=C/c1c(Cl)ncnc1NCc1ccccc1OC`, the concentration for half-maximal inhibition (IC50) with Human alphaherpesvirus 1 came to 4.28 µg/mL (≈ 14 µM). Moreover, in data set [2], the selectivity ratio at 72 h is 9. Also, the CC50 at 72 h in [1] amounted to 38.5 µg/mL (≈ 126 µM).

Consider `Nc1nc2c(c(N)nc(=O)n2[C@@H]2O[C@H](CO)[C@@H](O)[C@H]2O)c(=O)[nH]1`, for which the values for the IC50 in the data set on Influenza A virus H3N2 and in the data set with Human alphaherpesvirus 1 were 9.26 µg/mL (≈ 28.4 µM) and more than 83.3 µg/mL, respectively. The selectivity ratio at 72 h in [11] turned out to be 13. Besides, in data set [1], the CC50 at 72 h is 144 µg/mL (≈ 442 µM).

For `O/N=C/c1c(Cl)ncnc1NCc1ccccc1`, the concentration for half-maximal inhibition (IC50) with Human alphaherpesvirus 1 came to 1.92 µg/mL (≈ 7.31 µM). The selectivity ratio at 72 h in data set [2] stood at 3.86. In addition, the CC50 at 72 h in data set [1] was determined as 7.41 µg/mL (≈ 28.2 µM).
